# Measured values: patent US20080119505A1, “Novel 6-Pyridylphenanthridines” (ALTANA Pharma AG, priority 2005, published 2008)
# Molecular target: T1, PDE4B2 (Homo sapiens, UniProt Q07343)
# T1 construct: made in house; host or cells: SF21 insect cells (baculovirus; virus made in SF9 cells)
# Assay: Inhibition of PDE4 activity (PDE4B2 [3H]cAMP SPA enzyme assay)
# Format: biochemical
# Conditions: recombinant PDE4B2 expressed in SF21 insect cells, 0.5 μM cAMP, read-out: −log IC50 (mol/l), Inhibition of the PDE4 activity (converted)
# Experimental: The PDE4B2 (GB no. M97515) was a gift of Prof. M. Conti (Stanford University, USA). It was amplified from the original plasmid (pCMV5) via PCR with primers Rb9 (5′-[…]-3′) and Rb10 (5′-[…]-3′) and cloned into the pCR-Bac vector (Invitrogen, Groningen, NL).
# The recombinant baculovirus was prepared by means of homologous recombination in SF9 insect cells. The expression plasmid was cotransfected with Bac-N-Blue (Invitrogen, Groningen, NL) or Baculo-Gold DNA (Pharmingen, Hamburg) using a standard protocol (Pharmingen, Hamburg). Wt virus-free recombinant virus supernatant was selected using plaque assay methods. After that, high-titre virus supernatant was prepared by amplifying 3 times. PDE was expressed in SF21 cells by infecting 2×10^6 cells/ml with an MOI (multiplicity of infection) between 1 and 10 in serum-free SF900 medium (Life Technologies, Paisley, UK). […]
# The SF21 insect cells were resuspended, at a concentration of approx. 10^7 cells/ml, in ice-cold (4° C.) homogenization buffer (20 mM Tris, pH 8.2, containing the following additions: 140 mM NaCl, 3.8 mM KCl, 1 mM EGTA, 1 mM MgCl2, 10 mM β-mercaptoethanol, 2 mM benzamidine, 0.4 mM Pefablock, 10 μM leupeptin, 10 μM pepstatin A, 5 μM trypsin inhibitor) and disrupted by ultrasonication. […] The protein content was determined by the Bradford method (BioRad, Munich) using BSA as the standard. […]
# T1 sequence (Q07343 1-564 isoform Q07343-2): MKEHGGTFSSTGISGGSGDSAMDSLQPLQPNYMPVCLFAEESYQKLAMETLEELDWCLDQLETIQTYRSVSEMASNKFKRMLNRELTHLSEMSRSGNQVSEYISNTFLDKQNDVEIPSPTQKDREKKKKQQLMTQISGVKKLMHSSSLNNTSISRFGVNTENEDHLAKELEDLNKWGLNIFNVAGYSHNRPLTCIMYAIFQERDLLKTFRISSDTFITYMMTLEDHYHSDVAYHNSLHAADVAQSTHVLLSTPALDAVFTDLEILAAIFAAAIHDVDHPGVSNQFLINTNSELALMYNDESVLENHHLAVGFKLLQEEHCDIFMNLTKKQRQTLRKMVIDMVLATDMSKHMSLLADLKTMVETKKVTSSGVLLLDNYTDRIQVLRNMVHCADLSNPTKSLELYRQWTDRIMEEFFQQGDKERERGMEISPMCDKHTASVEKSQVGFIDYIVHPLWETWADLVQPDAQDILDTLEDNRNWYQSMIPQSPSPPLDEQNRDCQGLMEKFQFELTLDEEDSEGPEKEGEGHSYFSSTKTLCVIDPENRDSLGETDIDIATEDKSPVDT
smiles,measurement,value
"CCOc1cc2c(cc1OC)C(c1ccc(OC)nc1OC)=N[C@@H]1CCCC[C@H]21 [Example 2, (4aR,10bR)-6-(2,6-Dimethoxy-pyridin-3-yl)-9-ethoxy-8-methoxy-1,2,3,4,4a,10b-hexahydro-phenanthridine]",IC50,3.24 nM
